Results published in ChEMBL document CHEMBL3872231, “Design, synthesis, and biological evaluation of fluorinated imidazo[1,2-a]pyridine derivatives with potential antipsychotic activity” (Eur J Med Chem, 2016).
Calls of active or inactive are those of the source. The calls are words filed in the database; no cut-off is given here.

Columns and labels:
[1] = Displacement of [3H]-flunitrazepam from rat brain GABA-A receptor benzodiazepine site after 20 mins by liquid scintillation counting
Rattus norvegicus [2] = species: Rattus norvegicus; test: Potency index, ratio of zolpidem Ki to compound Ki for rat brain GABA-A receptor benzodiazepine site
[3] = target: T1, GABA-A receptor; alpha-1/beta-2/gamma-2 (Homo sapiens) (UniProt P14867+P47870+P18507); test: Positive allosteric modulation of human recombinant GABA-A receptor alpha1beta2gamma2 expressed in HEK293 cells assessed as potentiation of GABA induced chloride currents at 1 uM treated every 60 secs measured for 7 secs by electrophysiological method; format: cell-based
[4] = target: T2, GABA-A receptor; alpha-1/beta-2/gamma-2 (Homo sapiens, UniProt P14867+P18507+P47870); test: Positive allosteric modulation of human recombinant GABA-A receptor alpha1beta2gamma2 expressed in HEK293 cells assessed as potentiation of GABA induced chloride currents treated every 60 secs measured for 7 secs by electrophysiological method; format: cell-based
T2 sequence (P14867 whole entry): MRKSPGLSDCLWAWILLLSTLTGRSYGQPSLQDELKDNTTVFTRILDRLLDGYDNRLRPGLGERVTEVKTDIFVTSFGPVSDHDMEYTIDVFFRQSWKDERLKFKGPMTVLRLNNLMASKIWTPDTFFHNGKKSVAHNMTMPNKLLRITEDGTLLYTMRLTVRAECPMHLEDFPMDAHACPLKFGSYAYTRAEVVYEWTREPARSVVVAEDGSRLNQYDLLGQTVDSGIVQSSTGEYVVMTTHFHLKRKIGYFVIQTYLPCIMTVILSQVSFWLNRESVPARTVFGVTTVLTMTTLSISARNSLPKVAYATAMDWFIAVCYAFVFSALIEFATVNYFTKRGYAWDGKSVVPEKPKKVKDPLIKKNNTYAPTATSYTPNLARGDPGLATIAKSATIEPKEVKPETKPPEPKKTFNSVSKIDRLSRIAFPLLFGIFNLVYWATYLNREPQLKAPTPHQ
T2 sequence (P47870 whole entry): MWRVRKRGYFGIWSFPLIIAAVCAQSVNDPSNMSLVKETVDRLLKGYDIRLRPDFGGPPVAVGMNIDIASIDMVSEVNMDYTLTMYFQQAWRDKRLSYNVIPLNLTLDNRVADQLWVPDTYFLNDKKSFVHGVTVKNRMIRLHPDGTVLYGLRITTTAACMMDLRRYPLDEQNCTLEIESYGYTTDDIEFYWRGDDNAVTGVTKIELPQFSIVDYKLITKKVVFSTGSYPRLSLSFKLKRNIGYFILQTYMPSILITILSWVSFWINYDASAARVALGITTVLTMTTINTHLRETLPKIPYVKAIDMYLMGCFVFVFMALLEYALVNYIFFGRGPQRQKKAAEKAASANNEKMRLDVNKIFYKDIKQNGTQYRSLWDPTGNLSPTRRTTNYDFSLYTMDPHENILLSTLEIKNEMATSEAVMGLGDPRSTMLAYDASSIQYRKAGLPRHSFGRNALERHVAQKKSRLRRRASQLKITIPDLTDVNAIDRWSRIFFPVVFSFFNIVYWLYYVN
T2 sequence (P18507 whole entry): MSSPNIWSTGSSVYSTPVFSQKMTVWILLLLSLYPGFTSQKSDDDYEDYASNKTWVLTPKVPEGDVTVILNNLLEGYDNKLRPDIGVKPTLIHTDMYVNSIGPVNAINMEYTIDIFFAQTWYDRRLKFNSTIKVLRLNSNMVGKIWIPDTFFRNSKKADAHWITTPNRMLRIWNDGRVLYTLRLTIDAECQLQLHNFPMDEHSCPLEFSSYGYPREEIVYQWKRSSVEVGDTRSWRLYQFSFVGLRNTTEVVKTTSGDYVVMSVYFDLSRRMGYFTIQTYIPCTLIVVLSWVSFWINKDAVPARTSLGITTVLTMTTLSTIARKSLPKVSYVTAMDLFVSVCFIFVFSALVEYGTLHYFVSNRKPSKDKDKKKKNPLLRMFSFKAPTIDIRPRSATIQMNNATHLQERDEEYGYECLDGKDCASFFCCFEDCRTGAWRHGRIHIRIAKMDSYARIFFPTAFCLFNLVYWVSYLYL

[5] = target: T1, GABA-A receptor; alpha-1/beta-2/gamma-2 (Homo sapiens); test: Positive allosteric modulation of human recombinant GABA-A receptor alpha1beta2gamma2 expressed in HEK293 cells assessed as potentiation of GABA induced chloride currents at 1 uM treated every 60 secs measured for 7 secs by electrophysiological method relative to GABA; format: cell-based
[6] = Drug metabolism in human liver microsomes assessed as 2-(6-fluoro-2-(4-(hydroxymethyl)phenyl)imidazo[1,2-a]pyridin-3-yl)-N,N-dimethylacetamide formation at 20 uM preincubated for 15 mins followed by NADPH addition measured after 60 mins by UPLC-MS/MS analysis; format: ADME; settings: 1 h
HepG2 [7] = test: (§1) Hepatotoxicity in human HepG2 cells assessed as decrease in cell viability after 24 hrs by PrestoBlue assay; format: toxicity, cell-based; settings: hepg2, 24 h
HepG2 [8] = test: (§2) Hepatotoxicity in human HepG2 cells assessed as decrease in cell viability after 48 hrs by PrestoBlue assay; format: toxicity, cell-based; settings: hepg2, 48 h
HepG2 [9] = test: Hepatotoxicity in human HepG2 cells assessed as cell membrane damage after 24 hrs by luminescence assay; format: toxicity, cell-based; settings: hepg2, 24 h
HepG2 [10] = test: Hepatotoxicity in human HepG2 cells assessed as cell membrane damage after 48 hrs by luminescence assay; format: toxicity, cell-based; settings: hepg2, 48 h
HepG2 [11] = test: (§3) Hepatotoxicity in human HepG2 cells assessed as intracellular ATP level after 24 hrs by luminescence based ATP detection assay; format: toxicity, cell-based; settings: hepg2, 24 h
HepG2 [12] = test: (§4) Hepatotoxicity in human HepG2 cells assessed as intracellular ATP level after 48 hrs by luminescence based ATP detection assay; format: toxicity, cell-based; settings: hepg2, 48 h
HepG2 [13] = test: (§5) Hepatotoxicity in human HepG2 cells assessed as loss of mitochondrial membrane potential after 24 hrs by JC-1 staining based fluorescence assay; format: toxicity, cell-based; settings: hepg2, 24 h
[14] = Metabolic stability in human liver microsomes at 20 uM preincubated for 15 mins followed by NADPH addition measured after 60 mins by UPLC-MS/MS analysis; format: ADME; settings: 1 h
[15] = Drug metabolism in human liver microsomes assessed as 2-(2-(4-(hydroxymethyl)phenyl)-6-methylimidazo[1,2-a]pyridin-3-yl)-N,N-dimethylacetamide formation at 20 uM preincubated for 15 mins followed by NADPH addition measured after 60 mins by UPLC-MS/MS analysis; format: ADME; settings: 1 h
Rattus norvegicus [16] = test: Antipsychotic activity in rat assessed as reversal of amphetamine-induced hyperlocomotion at 1 mg/kg, ip treated for 30 mins prior to test followed by amphetamine administration 15 mins prior to test by open field test; format: functional, organism-based
[17] = Plasma elimination half life in human; format: ADME; settings: read-out: beta t1/2
[18] = Drug level in human liver microsomes treated with 20 uM of 2-(6-fluoro-2-p-tolylimidazo[1,2-a]pyridin-3-yl)-N,N-dimethylethanamide preincubated for 15 mins followed by NADPH addition measured after 60 mins by UPLC-MS/MS analysis; format: ADME; settings: 1 h
[19] = Drug level in human liver microsomes treated with 20 uM of zolpidem preincubated for 15 mins followed by NADPH addition measured after 60 mins by UPLC-MS/MS analysis; format: ADME; settings: 1 h
Rattus norvegicus [20] = test: Toxicity in rat assessed as myorelaxant effects at 1 mg/kg, ip administered 60 mins; format: organism-based; settings: in vivo, 1 h
Rattus norvegicus [21] = test: Toxicity in rat assessed as effect on behavioral changes at 1 mg/kg, ip administered 60 mins; format: organism-based; settings: in vivo, 1 h
Rattus norvegicus [22] = test: Toxicity in rat assessed as cataleptogenic effects at 1 mg/kg, ip administered 60 mins; format: organism-based; settings: in vivo, 1 h
Rattus norvegicus [23] = test: Antipsychotic activity in ip dosed rat assessed as reversal of amphetamine-induced hyperlocomotion administered 30 mins before administration of amphetamine measured for 15 mins by open field test; format: functional
Rattus norvegicus [24] = test: Antipsychotic activity in rat assessed as reversal of amphetamine-induced hyperlocomotion at 3 mg/kg, ip treated for 30 mins prior to test followed by amphetamine administration 15 mins prior to test by open field test; format: functional, organism-based
Rattus norvegicus [25] = test: Antipsychotic activity in rat assessed as reversal of amphetamine-induced hyperlocomotion at 3 mg/kg, ip treated for 60 mins prior to test followed by amphetamine administration 15 mins prior to test by open field test; format: functional, organism-based
Rattus norvegicus [26] = test: Toxicity in rat assessed as decrease in spontaneous locomotor activity at 1 mg/kg, ip treated for 60 mins by open field test; format: organism-based; settings: in vivo, 1 h
[27] = as §1; format: toxicity, cell-based; settings: HepG2 cells
[28] = as §2; format: toxicity, cell-based; settings: HepG2 cells
[29] = as §3; format: toxicity, cell-based; settings: HepG2 cells
[30] = as §4; format: toxicity, cell-based; settings: HepG2 cells
[31] = as §5; format: toxicity, cell-based; settings: HepG2 cells

## CN(C)C(=O)Cc1c(-c2ccc(C(F)(F)F)cc2)nc2ccc(C(F)(F)F)cn12
[1]
  Ki: 487 nM

## CN(C)C(=O)Cc1c(-c2ccc(C(F)(F)F)cc2)nc2ccc(F)cn12
[1]
  Ki: 68 nM

## CN(C)C(=O)Cc1c(-c2ccc(F)cc2F)nc2ccc(C(F)(F)F)cn12
[1]
  Ki: 830 nM

## Cc1ccc(-c2nc3ccc(F)cn3c2CC(=O)N(C)C)cc1
[1]
  Ki: 25 nM
Rattus norvegicus [2]
  Ratio Ki: 1.8
[3]
  Activity: Active
[4]
  EC50: 1270 nM
[5]
  fold change (FC): 1.5
[6]
  Drug metabolism: Metabolite_Detected
HepG2 [7]
  Activity: Non-Toxic
HepG2 [8]
  Activity: Non-Toxic
HepG2 [9]
  Activity: Non-Toxic
HepG2 [10]
  Activity: Non-Toxic
HepG2 [11]
  Activity: Non-Toxic
HepG2 [12]
  Activity: Non-Toxic
HepG2 [13]
  Activity: Non-Toxic

## Cc1ccc(-c2nc3ccc(C)cn3c2CC(=O)N(C)C)cc1 [ZOLPIDEM]
[1]
  Ki: 44 nM
[5]
  fold change (FC): 2.5
[14]
  Stability: Stable
[15]
  Drug metabolism: Metabolite_Detected
HepG2 [7]
  Activity: Non-Toxic
HepG2 [8]
  Activity: Non-Toxic
HepG2 [9]
  Activity: Non-Toxic
HepG2 [10]
  Activity: Non-Toxic
HepG2 [11]
  Activity: Non-Toxic
HepG2 [12]
  Activity: Non-Toxic
HepG2 [13]
  Activity: Non-Toxic
Rattus norvegicus [16]
  Activity: Active
[17]
  half-life: ≤ 2 h

## CN(C)C(=O)Cc1c(-c2ccc(F)cc2F)nc2ccc(F)cn12
[1]
  Ki: 180 nM

## CN(C)C(=O)Cc1c(-c2cccc(F)c2)nc2ccc(C(F)(F)F)cn12
[1]
  Ki: 730 nM

## Cc1ccc(-c2nc3ccc(CO)cn3c2CC(=O)N(C)C)cc1
[18]
  Drug metabolism: Metabolite_Detected

## Cc1ccc2nc(-c3ccc(CO)cc3)c(CC(=O)N(C)C)n2c1
[19]
  Drug metabolism: Metabolite_Detected

## Cc1ccc2nc(-c3ccc(F)cc3)c(CC(=O)N(C)C)n2c1
Rattus norvegicus [20]
  Activity: Non-Toxic
Rattus norvegicus [21]
  Activity: Toxic
Rattus norvegicus [22]
  Activity: Non-Toxic
Rattus norvegicus [23]
  Activity: Dose-dependent effect
Rattus norvegicus [23]; read-out: MED
  minimal effective dose: 1 mg/kg
[1]
  Ki: 59.6 to 60 nM
[3]
  Activity: Active
[4]
  EC50: 238 nM
[5]
  fold change (FC): 1.9
[14]
  Stability: Stable
HepG2 [7]
  Activity: Non-Toxic
HepG2 [8]
  Activity: Non-Toxic
HepG2 [9]
  Activity: Non-Toxic
HepG2 [10]
  Activity: Non-Toxic
HepG2 [11]
  Activity: Non-Toxic
HepG2 [12]
  Activity: Non-Toxic
HepG2 [13]
  Activity: Non-Toxic
Rattus norvegicus [24]
  Activity: Active
Rattus norvegicus [25]
  Activity: Active
Rattus norvegicus [26]
  Activity: Toxic

## N#CC(C#N)=NNc1cccc(Cl)c1 [CARBONYL CYANIDE M-CHLOROPHENYLHYDRAZONE]
[27]
  IC50 at 24 h: 22000 nM
[28]
  IC50 at 48 h: 6000 nM
HepG2 [9]
  Activity: Non-Toxic
HepG2 [10]
  Activity: Non-Toxic
[29]
  IC50 at 24 h: 9800 nM
[30]
  IC50 at 48 h: 7200 nM
[31]
  IC50 at 24 h: 36000 nM

## CN(C)C(=O)Cc1c(-c2ccc(F)c(F)c2)nc2ccc(F)cn12
[1]
  Ki: 57.5 to 58 nM

## CN(C)C(=O)Cc1c(-c2ccc(F)cc2)nc2ccc(F)cn12
[1]
  Ki: 55.6 to 56 nM
[3]
  Activity: Active
[4]
  EC50: 408 nM
[5]
  fold change (FC): 1.8
[14]
  Stability: Stable
HepG2 [7]
  Activity: Non-Toxic
HepG2 [8]
  Activity: Non-Toxic
HepG2 [9]
  Activity: Non-Toxic
HepG2 [10]
  Activity: Non-Toxic
HepG2 [11]
  Activity: Non-Toxic
HepG2 [12]
  Activity: Non-Toxic
HepG2 [13]
  Activity: Non-Toxic

## CN(C)C(=O)Cc1c(-c2ccccc2)nc2ccc(F)cn12
[1]
  Ki: 130 nM

## CN(C)C(=O)Cc1c(-c2cccc(F)c2)nc2ccc(F)cn12
[1]
  Ki: 140 nM

## CN(C)C(=O)Cc1c(-c2ccc(F)cc2)nc2ccc(C(F)(F)F)cn12
[1]
  Ki: 510 nM
